Values joined by “and” are separate entries in the source; they are usually repeats but may differ in a detail not shown here. Equal values may be shown once.
Experiments:
[1] = test system: Escherichia coli (ATCC 25922); assay: Microbicidal activity against Escherichia coli (suspension test, surviving CFU); assay type: cell-based; details: inoculum 1630000 CFU
Description: Each solution was used alone for the individual controls. Organism suspensions were used to achieve a final target concentration of 2-3×10^6 CFU per ml. For the binary system treatments, sodium hypochlorite solution and hydrogen peroxide solution, non-acidified or acidified, were sequentially added to the microorganisms. Acidified hydrogen peroxide solution was obtained by the addition of 1.0% v/v of 0.001 N hydrochloride solution. After each addition, the resulting mixture was allowed to remain in contact with the organisms for a set amount of time at room temperature (about 22° C.), as listed in the Tables 1 and 2. At the end of the treatment time, the mixtures were neutralized with 200 to 500 microliters of thiosulfate solution (2.4%) to quench the activity of sodium hypochlorite and then treated with 100 to 200 microliters of a 1% catalase solution, containing a minimum of 100 units/ul, to quench the hydrogen peroxide activity. If needed, an appropriate volume of sterile saline was added to bring the final volume of reaction mixture to 1.4 ml after neutralization. Serial dilution plate counts were performed from the contents of each vial in sterile saline and inoculated onto TSA for quantitative culture. Plates were then incubated at 37° C. and counts taken at 24 hours. […]

[2] = test system: Bacillus subtilis (ATCC 19659) spores; assay: Microbicidal activity against Bacillus subtilis spores (suspension test, surviving CFU); assay type: cell-based
Description: Each solution was used alone for the individual controls. Organism suspensions were used to achieve a final target concentration of 2-3×10^6 CFU per ml. For the binary system treatments, sodium hypochlorite solution and hydrogen peroxide solution, non-acidified or acidified, were sequentially added to the microorganisms. Acidified hydrogen peroxide solution was obtained by the addition of 1.0% v/v of 0.001 N hydrochloride solution. After each addition, the resulting mixture was allowed to remain in contact with the organisms for a set amount of time at room temperature (about 22° C.), as listed in the Tables 1 and 2. At the end of the treatment time, the mixtures were neutralized with 200 to 500 microliters of thiosulfate solution (2.4%) to quench the activity of sodium hypochlorite and then treated with 100 to 200 microliters of a 1% catalase solution, containing a minimum of 100 units/ul, to quench the hydrogen peroxide activity. If needed, an appropriate volume of sterile saline was added to bring the final volume of reaction mixture to 1.4 ml after neutralization. Serial dilution plate counts were performed from the contents of each vial in sterile saline and inoculated onto TSA for quantitative culture. Plates were then incubated at 37° C. and counts taken at 24 hours.
Suspensions of Bacillus subtilis (ATCC 19659) containing 100% spores, as confirmed by microscopy, were obtained by washing the spun-down cells with 50% ethanol to eliminate the vegetative form. Starting inoculum of approximately 1-3×10^6 CFU was used as in Example 1.
[…] The binary system was neutralized 30 minutes after addition of hydrogen peroxide using 2.4% thiosulfate and 1% catalase as described in Example 1.

[3] = NaOCl 0.07 mM 60 min, inoculum 1120000 CFU
[4] = NaOCl 0.07 mM 60 min, inoculum 1865000 CFU
[5] = NaOCl 0.07 mM 120 min, inoculum 1865000 CFU
[6] = NaOCl 0.7 mM 60 min, inoculum 1500000 CFU
[7] = NaOCl 0.71 mM 60 min, inoculum 1120000 CFU
[8] = NaOCl 0.71 mM 60 min, inoculum 1865000 CFU
[9] = NaOCl 0.71 mM 120 min, inoculum 1865000 CFU
[10] = NaOCl 3.5 mM 60 min, inoculum 1500000 CFU
[11] = NaOCl 7.0 mM 60 min, inoculum 1500000 CFU
[12] = NaOCl 7.05 mM 60 min, inoculum 1120000 CFU
[13] = NaOCl 7.05 mM 60 min, inoculum 1865000 CFU
[14] = NaOCl 7.05 mM 120 min, inoculum 1865000 CFU
[15] = NaOCl 70.53 mM 60 min, inoculum 1865000 CFU
[16] = NaOCl 70.53 mM 120 min, inoculum 1865000 CFU
[17] = NaOCl 705.27 mM 60 min, inoculum 1865000 CFU
[18] = NaOCl 705.27 mM 120 min, inoculum 1865000 CFU

SMILES: [Na+].[O-]Cl [NaOCl, sodium hypochlorite]
- Log 10 (CFU + 1) Survivors ([1]; NaOCl 0.01 mM 15 min): 6.1
- Total Viability (CFU) ([1]; NaOCl 0.01 mM 15 min): 1218000 CFU
- Log 10 (CFU + 1) Survivors ([1]; NaOCl 0.02 mM 15 min): 5.9
- Total Viability (CFU) ([1]; NaOCl 0.02 mM 15 min): 784000 CFU
- Log 10 (CFU + 1) Survivors ([1]; NaOCl 0.03 mM 15 min): 3.0
- Total Viability (CFU) ([1]; NaOCl 0.03 mM 15 min): 994 CFU
- Log 10 (CFU + 1) Survivors [2, 3]: 6.2
- Total Viability (CFU) [2, 3]: 1666000 CFU
- Log 10 (CFU + 1) Survivors [2, 4]: 6.3
- Log Reduction [2, 4]: −0.1
- Total Viability (CFU) [2, 4]: 2142000 CFU
- Log 10 (CFU + 1) Survivors [2, 5]: 6.3
- Log Reduction [2, 5]: 0.0
- Total Viability (CFU) [2, 5]: 1834000 CFU
- Log 10 (CFU + 1) Survivors [2, 6]: 3.5
- Log Reduction [2, 6]: 2.7 and 2.66
- Total Viability (CFU) [2, 6]: 3304 CFU
- Log 10 (CFU + 1) Survivors [2, 7]: 3.5
- Total Viability (CFU) [2, 7]: 2898 CFU
- Log 10 (CFU + 1) Survivors [2, 8]: 4.2
- Log Reduction [2, 8]: 2.1
- Total Viability (CFU) [2, 8]: 14840 CFU
- Log 10 (CFU + 1) Survivors [2, 9]: 3.2
- Log Reduction [2, 9]: 3.1
- Total Viability (CFU) [2, 9]: 1526 CFU
- Log 10 (CFU + 1) Survivors [2, 10]: 2.7
- Log Reduction [2, 10]: 3.4 and 3.44
- Total Viability (CFU) [2, 10]: 546 CFU
- Log 10 (CFU + 1) Survivors [2, 11]: 1.3
- Log Reduction [2, 11]: 4.9 and 4.87
- Total Viability (CFU) [2, 11]: 20 CFU
- Log 10 (CFU + 1) Survivors [2, 12]: 1.3
- Total Viability (CFU) [2, 12]: 17 CFU
- Log 10 (CFU + 1) Survivors [2, 13]: 1.6
- Log Reduction [2, 13]: 4.6
- Total Viability (CFU) [2, 13]: 43 CFU
- Log 10 (CFU + 1) Survivors [2, 14]: 0.0
- Log Reduction [2, 14]: 6.3
- Total Viability (CFU) [2, 14]: 0 CFU
- Log 10 (CFU + 1) Survivors [2, 15]: 0.0
- Log Reduction [2, 15]: 6.3
- Total Viability (CFU) [2, 15]: 0 CFU
- Log 10 (CFU + 1) Survivors [2, 16]: 0.0
- Log Reduction [2, 16]: 6.3
- Total Viability (CFU) [2, 16]: 0 CFU
- Log 10 (CFU + 1) Survivors [2, 17]: 0.0
- Log Reduction [2, 17]: 6.3
- Total Viability (CFU) [2, 17]: 0 CFU
- Log 10 (CFU + 1) Survivors [2, 18]: 0.0
- Log Reduction [2, 18]: 6.3
- Total Viability (CFU) [2, 18]: 0 CFU
- microbicidal activity (kill of inoculum) ([2]; sodium hypochlorite from 70 mM to 0.07 mM, 60 minutes of exposure, 6.3 log10 CFU inoculum): partial kill
